In ChEMBL document CHEMBL5370645, “Discovery, Characterization, and Bioactivity of the Achromonodins: Lasso Peptides Encoded by Achromobacter” (J Nat Prod, 2023):
The source made the active and inactive calls. The rule behind the calls is not given here. Positions of bridges follow the written chain, without caps; N, C: chain ends. Residues, ends and D or L forms follow the SMILES beside them.

Tested on: Escherichia coli
Assay: Inhibition of Escherichia coli RNA polymerase assessed as reduction in transcriptional capacity by abortive transcription initiation assay

inhibition: Active
SMILES: CC[C@H](C)[C@@H]1NC(=O)[C@H](CO)NC(=O)CNC(=O)[C@H](CC(=O)O)NC(=O)CNC(=O)CNC(=O)CC[C@@H](C(=O)N[C@@H](Cc2ccc(O)cc2)C(=O)N[C@@H](Cc2ccccc2)C(=O)N[C@@H](CC(N)=O)C(=O)N[C@@H](CCCNC(=N)N)C(=O)N2CCC[C@H]2C(=O)N[C@@H](CCSC)C(=O)N[C@@H](Cc2c[nH]cn2)C(=O)N[C@H](C(=O)N[C@@H](Cc2c[nH]cn2)C(=O)N[C@@H](CC(=O)O)C(=O)N[C@@H](Cc2c[nH]c3ccccc23)C(=O)N[C@@H](CCC(N)=O)C(=O)N[C@H](C(=O)N[C@@H](CCSC)C(=O)N[C@@H](CC(=O)O)C(=O)N[C@@H](CO)C(=O)NCC(=O)N[C@@H](Cc2ccc(O)cc2)C(=O)N[C@@H](Cc2ccc(O)cc2)C(=O)NCC(=O)O)[C@@H](C)CC)[C@@H](C)CC)NC(=O)[C@H](C)NC1=O (GGDGSIAEYFNRPMHIHDWQIMDSGYYG-OH; lactam N-8)
